# How the values were obtained:
# [1] = tested on: pre-established BLM-induced skin fibrosis; settings: imatinib at 150 mg/kg orally once daily day 22-42, positive control
# [2] = tested on: bleomycin (BLM)-induced skin fibrosis model; settings: reported in the literature; cited from earlier work
# [3] = tested on: dermal fibroblasts from healthy donors; assay: TGF-β-induced human fibroblast activation, healthy donors; assay type: cell-based; settings: concentration of 1000 nmol/L; TGF-β 10 ng/mL, 24 hours
# Source text: (§1) Full-thickness skin biopsies were obtained from clinically involved skin of patients affected by dcSSc, who were recruited from the Systemic sclerosis clinic within the Leeds Institute of Rheumatic and Musculoskeletal Medicine (UK). Control skin samples were from healthy donors. All patients with dcSSc and healthy donors provided written informed consent through the stratification for risk of progression in systemic sclerosis (STRIKE SSC), which had been approved by the North-East Research Ethic committee. Patients with SSc fulfilled the 2013 ACR/EULAR classification criteria for SSc and were classified as having dcSSc according to the LeRoy and Medsger criteria.
# Dermal fibroblasts were isolated from the skin biopsy samples of healthy donors and SSc patients. The skin biopsy samples were minced with a scalpel, placed in plastic culture dishes and covered with Dulbecco's Modified Eagle Medium (DMEM) with 4.5 g/L glucose (Thermo Fisher Scientific) supplemented with 20% fetal calf serum (FCS, Thermo Fisher Scientific), 1% penicillin and streptomycin (Merck), and 1 μg/ml of amphotericin (Thermo Fisher Scientific) and cultured at 37° C. in a humidified atmosphere of 5% CO2. Additional growth medium was added after 3 days with no amphotericin. After 7 days, culture medium was replaced with medium containing 10% FCS and subsequently replenished every 2 to 3 days. When a visible outgrowth of cells was obtained, the fibroblasts were passaged. Briefly, cells were incubated with PBS containing 0.1% EDTA for 5 min, and then detached with trypsin-EDTA solution (Merck), and cultured until 70-80% confluent in DMEM (1 g/L glucose) supplemented with 10% FCS and 1% penicillin and streptomycin. After a subsequent passage, primary cells were retrovirally immortalized using human telomerase reverse transcriptase. […]
# (§2) Total RNA was extracted using the Zymo quick RNA mini prep kit according to manufacturer's instructions (Zymo Research Corporation). […] Quantitative RT-PCR was performed in triplicates using SYBR Green RT-PCR Mastermix Kit (Thermo Fisher Scientific) and the ABI PRISM 7500 Fast Real Time PCR System (Applied Biosystems). […]
# FIGS. 5(A)-5(B) show the effect of Compound A on human fibroblast activation. Dermal fibroblasts from a healthy individual or an SSc patient were grown to confluence, and placed under starvation for 24 hours in a medium supplemented with 1% fetal bovine serum (A: mRNA expression of ACTA2 and COL1A1 in dermal fibroblasts of healthy individuals was measured by real-time PCR, and normalized for the GAPDH expression level. B: mRNA expression of ACTA2 and COL1A1 in dermal fibroblasts of SSc patients was measured for by real-time PCR, and normalized for the GAPDH expression level). Each bar represents the mean±SEM of the measured values from three wells. […]
# [4] = tested on: dermal fibroblasts from SSc patients; assay: TGF-β-induced human fibroblast activation, SSc patients; assay type: cell-based; settings: concentration of 1000 nmol/L; TGF-β 10 ng/mL, 24 hours
# Source text: as §1
# Dermal fibroblasts were isolated from the skin biopsy samples of healthy donors and SSc patients. […]
# as §2
# FIGS. 5(A)-5(B) show the effect of Compound A on human fibroblast activation. […] Each bar represents the mean±SEM of the measured values from three wells. […]
Molecule,BLM-induced increase of skin thickness [1],BLM-induced increase of αSMA-positive myofibroblasts in the dermis [1],BLM-induced loss of dermal white adipose tissue [1],skin fibrosis [2],TGF-β-induced increase in αSMA mRNA expression [3],TGF-β-induced increase in αSMA mRNA expression [4]
"Cc1ccc(NC(=O)c2ccc(CN3CCN(C)CC3)cc2)cc1Nc1nccc(-c2cccnc2)n1 [imatinib, reference compound]",improved,improved,improved,–,–,–
α-MSH [reference compound],–,–,–,suppress,suppressed,suppressed

# Source: patent US12533350B2, “Use of melanocortin-1 receptor agonist” (TANABE PHARMA CORPORATION, priority 2022, dated 2026)
